ChEMBL document CHEMBL4390669, “C-6α- vs C-7α-Substituted Steroidal Aromatase Inhibitors: Which Is Better? Synthesis, Biochemical Evaluation, Docking Studies, and Structure-Activity Relationships” (J Med Chem, 2019)
Active and inactive are the calls of the source. The rule behind the calls is not given here.

Tests used:
Aromatase [1] = biological target: T1, Aromatase (Homo sapiens, UniProt P11511); experiment: Inhibition of human placental microsome aromatase using [1beta3H]-androstenedione as substrate measured after 15 mins in presence of NADPH by liquid scintillation counting method; format: microsomes, Placenta; details: for inhibition (INH): human, microsomes, 0.25 h
T1 sequence (P11511 whole entry): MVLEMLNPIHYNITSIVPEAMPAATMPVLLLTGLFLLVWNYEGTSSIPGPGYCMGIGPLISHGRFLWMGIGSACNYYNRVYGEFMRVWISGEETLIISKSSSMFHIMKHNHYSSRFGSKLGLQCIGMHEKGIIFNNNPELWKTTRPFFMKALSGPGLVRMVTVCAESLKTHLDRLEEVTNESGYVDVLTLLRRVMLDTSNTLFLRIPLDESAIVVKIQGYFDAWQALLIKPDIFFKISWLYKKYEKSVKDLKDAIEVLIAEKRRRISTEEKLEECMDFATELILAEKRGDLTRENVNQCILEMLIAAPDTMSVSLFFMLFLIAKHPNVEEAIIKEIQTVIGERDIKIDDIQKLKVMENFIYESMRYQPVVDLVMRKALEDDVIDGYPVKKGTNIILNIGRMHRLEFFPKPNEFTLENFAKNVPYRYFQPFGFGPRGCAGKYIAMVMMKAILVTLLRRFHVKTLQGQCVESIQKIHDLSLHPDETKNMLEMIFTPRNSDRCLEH

Aromatase [2] = biological target: T1, Aromatase; experiment: Inhibition of human placental microsome aromatase at 2 uM using [1beta3H]-androstenedione as substrate measured after 15 mins in presence of NADPH by liquid scintillation counting method relative to control; format: microsomes, Placenta; details: 0.25 h
MCF7 = experiment: Induction of crystal formation in human MCF7 cells transfected with human placental microsome aromatase at 10 uM measured after 1 hr; format: functional, cell-based
Aromatase [3] = biological target: T1, Aromatase; experiment: Inhibition of […] aromatase expressed in human MCF7 cells at 10 uM using [1beta3H]-androstenedione as substrate measured after 1 hr in presence of progesterone relative to control
Aromatase [4] = biological target: T1, Aromatase; experiment: Competitive reversible inhibition of human placental microsome aromatase using varying levels of [1beta3H]-androstenedione as substrate measured after 5 mins in presence of NADPH by Lineweaver-burk plot analysis; parameters: species or system Placenta; details: microsomes
Aromatase [5] = biological target: T1, Aromatase; experiment: Competitive irreversible inhibition of human placental microsome aromatase using varying levels of [1beta3H]-androstenedione as substrate measured after 5 mins in presence of NADPH by Dixon-plot analysis; format: microsomes, Placenta; details: read-out: Ki(app)
Aromatase [6] = biological target: T1, Aromatase; experiment: Competitive reversible inhibition of human placental microsome aromatase assessed as substrate Vmax per ug protein using varying levels of [1beta3H]-androstenedione as substrate measured after 5 mins in presence of NADPH by Dixon-plot analysis; parameters: species or system Placenta; details: microsomes
Aromatase [7] = biological target: T1, Aromatase; experiment: Ratio of Km to Ki for human placental microsome aromatase using varying levels of [1beta3H]-androstenedione as substrate measured after 5 mins in presence of NADPH by Dixon-plot analysis; parameters: species or system Placenta; details: microsomes
Aromatase [8] = biological target: T1, Aromatase; experiment: Competitive reversible inhibition of human placental microsome aromatase using varying levels of [1beta3H]-androstenedione as substrate measured after 5 mins in presence of NADPH by Dixon-plot analysis; format: microsomes, Placenta; details: read-out: Ki(app)
Aromatase [9] = biological target: T1, Aromatase; experiment: Competitive irreversible inhibition of human placental microsome aromatase using varying levels of [1beta3H]-androstenedione as substrate measured after 5 mins in presence of NADPH by Lineweaver-burk plot analysis; parameters: species or system Placenta; details: microsomes

| Structure (SMILES) | IC50 (Aromatase [1]) [nM] | inhibition at 2 µM (Aromatase [2]) [%] | inhibition at 10 µM (Aromatase [3]) [%] | further results |
| --- | --- | --- | --- | --- |
| C[C@H]1C[C@@H]2[C@H](CC[C@]3(C)C(=O)CC[C@@H]23)[C@@]2(C)CCCC=C12 | 170 | 96.7 |  | Activity (MCF7): Active |
| C=CC[C@H]1C[C@@H]2[C@H](CC[C@]3(C)C(=O)CC[C@@H]23)[C@@]2(C)CCC(=O)C(O)=C12 | 520 | 90.1 | 80.7 |  |
| C[C@]12CCC(=O)C=C1[C@H](O)C[C@@H]1[C@@H]2CC[C@]2(C)C(=O)CC[C@@H]12 | 840 | 88.6 | 88.2 |  |
| C[C@H]1C[C@@H]2[C@H](CC[C@]3(C)C(=O)CC[C@@H]23)[C@@]2(C)CC[C@H]3O[C@H]3[C@H]12 | 175 | 96.7 | 84.2 |  |
| C[C@]12CCC(=O)C=C1C[C@@H](O)[C@@H]1[C@@H]2CC[C@]2(C)C(=O)CC[C@@H]12 |  | 49.8 |  |  |
| C=CC[C@@H]1CC2=CC(=O)CC[C@]2(C)[C@H]2CC[C@]3(C)C(=O)CC[C@H]3[C@H]12 |  |  | 92.6 |  |
| C[C@@H]1C[C@@H]2[C@H]3O[C@H]3CC[C@]2(C)[C@H]2CC[C@]3(C)C(=O)CC[C@H]3[C@H]12 |  | 13.7 |  |  |
| C[C@H]1C[C@@H]2[C@H](CC[C@]3(C)C(=O)CC[C@@H]23)[C@@]2(C)CCC(=O)C=C12 | 60 | 98.7 | 98.6 | inhibition (INH) (Aromatase [4]): Active; Ki (Aromatase [5]): 22.5 nM; inhibition (INH) (Aromatase [1]): Dose-dependent effect; Vmax (Aromatase [6]): 0.0191 nmol/min; Ratio (Aromatase [7]): 2.53; Ki (Aromatase [8]): 25 nM |
| C[C@@H]1CC2=CC(=O)CC[C@]2(C)[C@H]2CC[C@]3(C)C(=O)CC[C@H]3[C@H]12 | 270 | 94.3 | 90.8 |  |
| C=CC[C@@H]1CC2=C(O)C(=O)CC[C@]2(C)[C@H]2CC[C@]3(C)C(=O)CC[C@H]3[C@H]12 | 110 | 91.8 |  | inhibition (INH) (Aromatase [1]): Dose-dependent effect; Activity (MCF7): Active |
| C[C@H]1C[C@H]2[C@@H]3CCC(=O)[C@@]3(C)CC[C@@H]2[C@@]2(C)CCC[C@H]3O[C@]132 |  | 58.7 |  |  |
| C=CC[C@H]1C[C@@H]2[C@H](CC[C@]3(C)C(=O)CC[C@@H]23)[C@@]2(C)CCC(=O)C=C12 | 105 | 97.2 | 96.5 | inhibition (INH) (Aromatase [1]): Dose-dependent effect |
| C[C@]12CCC(=O)C=C1[C@@H](O)C[C@@H]1[C@@H]2CC[C@]2(C)C(=O)CC[C@@H]12 | 880 | 90.7 | 88.4 |  |
| C=CC[C@@H]1CC2=CCCC[C@]2(C)[C@H]2CC[C@]3(C)C(=O)CC[C@H]3[C@H]12 |  |  | 74.7 |  |
| C=CC[C@H]1C[C@@H]2[C@H](CC[C@]3(C)C(=O)CC[C@@H]23)[C@@]2(C)C=CC(=O)C=C12 | 55 | 97.6 | 99.2 | inhibition (INH) (Aromatase [1]): Dose-dependent effect; inhibition (INH) (Aromatase [9]): Active; Ratio (Aromatase [7]): 2.81 |
| C[C@H]1C[C@@H]2[C@H](CC[C@]3(C)C(=O)CC[C@@H]23)[C@@]2(C)CCC=C[C@H]12 | 560 | 93.5 | 88.7 |  |
| C[C@@H]1CC2=CCCC[C@]2(C)[C@H]2CC[C@]3(C)C(=O)CC[C@H]3[C@H]12 | 405 | 97.4 | 89.5 |  |
| C[C@H]1C[C@H]2[C@@H]3CCC(=O)[C@@]3(C)CC[C@@H]2[C@@]2(C)CCC[C@@H]3O[C@]312 |  | 76.2 |  |  |
| C=CC[C@H]1C[C@@H]2[C@H](CC[C@]3(C)C(=O)CC[C@@H]23)[C@@]2(C)CCCC=C12 | 210 | 92.4 | 84.1 |  |
| C=CC[C@@H]1CC2=CC(=O)C=C[C@]2(C)[C@H]2CC[C@]3(C)C(=O)CC[C@H]3[C@H]12 |  |  | 96.3 |  |
| C[C@]12CCC(=O)C(O)=C1CC[C@@H]1[C@@H]2CC[C@]2(C)C(=O)CC[C@@H]12 [FORMESTANE] |  | 99.2 | 97.1 |  |
| C[C@@H]1C[C@@]23O[C@@H]2CCC[C@]3(C)[C@H]2CC[C@]3(C)C(=O)CC[C@H]3[C@H]12 |  | 64.9 |  |  |
